Results on 10 molecules are retold here after US20230331649A1, “INHIBITORS OF PROTEIN FUCOSYLATION AND USES THEREOF” (SIMON FRASER UNIVERSITY, priority 2020, published 2023).

One assay deals with CHO K1 cells. The experiment in a line: Cell-based fucosylation assay, fluorescein-AAL lectin staining of CHO K1 cells. Conditions: Cricetulus griseus, 120 h, five days with inhibitor, 3.2 nM-100 μM, AAL lectin fluorescence normalized to DMSO vehicle. Also noted: species or system Chinese hamster. The method, then:
CHO K1 cells were grown in a T175 flask, in F12 medium supplemented with 10% […], at 37° C., 5% CO2. 350 cells were seeded in every well of a 384-well plate (Corning 4680, 45 μL final) and incubated at 37° C. overnight. Inhibitors were stored as 20 mM stock solution in DMSO. Inhibitors were diluted to the desired concentration in CHO cells culture medium and were dispensed into the wells of the plate (50 μL final well volume). An equivalent amount of DMSO (vehicle) was dispensed into control wells. Cells were incubated in the presence of inhibitors for five days. Following treatment, the culture medium was removed and cells were washed four times with 60 μL of PBS-T using a combination washer/dispenser (EL406, Biotek). 50 μL of 4% PFA in PBS-T was then dispensed into the plate and cells were incubated for 15 min at room temperature before being washed four times with 60 μL of PBS-T. Cells were subsequently incubated for 45 minutes at room temperature with 5% Bovine Serum Albumin (BSA) in PBS-T to prevent non-specific lectin binding. The BSA solution was then replaced by 50 μL of a solution of 5 μg/mL of Fluorescein-conjugated Aleuria Aurentia Lectin (AAL) (Vector Laboratories) and cells were kept at room temperature in the dark for 1 h. Negative controls were co-incubated with AAL and 100 mM fucose as a lectin antagonist. Cells were subsequently washed four times with 60 μL PBS-T. Then, 50 μL of 1 μg/mL Hoechst solution in PBS was dispensed into each well and cells were directly imaged using an ImageXpress MicroXLS high content microscope (Molecular Devices). Four sites per wells were imaged using DAPI and FITC channels (50 ms and 300 ms exposure respectively). Images were processed using MetaXpress software. Briefly, for each site, the integrated average fluorescence was quantified and normalized for the corresponding number of cells determined with nuclear staining. Results from each site were combined to provide a single value for each well. At least four independent wells were imaged for each condition providing four biological replicates. IC50 curves were plotted using GraphPad Prism. Results were normalized on the average value for vehicle wells (DMSO treated).
We assessed the potency of carbafucose and selected analogs through dose-response experiments over a 3.2 nM-100 μM range of concentrations in the cell-based assay. The cell-based fucosylation antagonist 2-deoxy-2-fluoro-L-fucose (2FFuc) was used as a control (FIGS. 1A-D).
The term IC50 denotes the point on the concentration scale where inhibition reaches its midpoint. For `C=C[C@@H]1C[C@H](O)[C@@H](O)[C@H](O)[C@@H]1O` [1-42], the half-maximal inhibitory concentration (IC50) was 137 ± 79 µM.

Consider `C[C@@H]1C[C@H](OP(=O)(O)O)[C@@H](O)[C@H](O)[C@@H]1O` [2-3], for which the IC50 was 39.5 ± 30.3 µM.

With `C[C@@H]1OC(O)[C@@H](F)[C@H](O)[C@@H]1O` (stereo partly drawn) [2FFuc, 2-deoxy-2-fluoro-L-fucose, reference compound], the IC50 was found to be 137 ± 79 µM.

On to `C[C@@H]1C[C@H](O)[C@@H](O)[C@H](O)[C@@H]1O` [carbafucose], for which the 50% inhibitory concentration (IC50) worked out at 16.1 ± 7.7 µM.

The test system of another assay is Expi-CHO cells. As to the kind of experiment: Glycan analysis of HER2 antibody from compound-treated Expi-CHO cells (PNGaseF release, CE-LIF). In kind it is cell-based, Chinese hamster. Conditions: 0.1 mM compound added a day after transfection with HER2 antibody; harvested after 8 days; released glycans by CE-LIF. The method, then:
Expi-CHO cells were treated with compounds 16, 7, 9, 13, 6, 8, 14 and 15 at 0.1 mM (final conc.) a day after transfection with HER2 antibody. The transfected cells were harvested after 8 days and purified HER2 antibodies were deglycosylated using PNGaseF and the released glycans were purified and analyzed by capillary electrophoresis-laser-induced fluorescence (CE-LIF).
Take `CC1=C[C@H](O)[C@@H](F)[C@H](O)[C@@H]1O` [Compound 6]: the “Glycan A2BG2 (alt name G2B) (%)” value was determined as 0.8%, the “Glycan FA2(3)G1 (alt name G1′F) (%)” value was determined as 0.6%, the “Glycan FA2(6)G1 (alt name G1F) (%)” value was 4.1% and the “Glycan FA2(6)G1S1 (alt name G1FS1) (%)” value stood at 0.8%. Moreover, the “Glycan FA2 (alt name G0F) (%)” value was 77.7%, the “Glycan FA2G2S1 (alt name G2FS1) (%)” value is recorded as 15.9% and the “Glycan FA2G2S2 (alt name G2FS2) (%)” value was 0.0%.

With `CC(=O)O[C@H]1[C@H](F)[C@@H](OC(C)=O)C=C(C)[C@H]1OC(C)=O` [Compound 7], the “Glycan A2BG2 (alt name G2B) (%)” value turned out to be 0.0%, the “Glycan FA2(3)G1 (alt name G1′F) (%)” value is reported as 0.0%, the “Glycan FA2(6)G1 (alt name G1F) (%)” value came to 3.9% and the “Glycan FA2(6)G1S1 (alt name G1FS1) (%)” value is on record as 0.0%. Moreover, the “Glycan FA2 (alt name G0F) (%)” value amounted to 79.5%, the “Glycan FA2G2S1 (alt name G2FS1) (%)” value is on record as 16.6% and the “Glycan FA2G2S2 (alt name G2FS2) (%)” value turned out to be 0.0%.

As to `CC1C[C@H](O)[C@@H](F)[C@H](O)[C@@H]1O` (stereo partly shown) [Compound 8], the “Glycan A2BG2 (alt name G2B) (%)” value is 0.0%, the “Glycan FA2(3)G1 (alt name G1′F) (%)” value is given as 0.0%, the “Glycan FA2(6)G1 (alt name G1F) (%)” value amounted to 3.9% and the “Glycan FA2(6)G1S1 (alt name G1FS1) (%)” value is listed as 0.0%. For the same molecule, the “Glycan FA2 (alt name G0F) (%)” value worked out at 79.3%, the “Glycan FA2G2S1 (alt name G2FS1) (%)” value is listed as 16.8% and the “Glycan FA2G2S2 (alt name G2FS2) (%)” value was 0.0%.

For the molecule `CC(=O)O[C@H]1[C@H](F)[C@@H](OC(C)=O)CC(C)[C@H]1OC(C)=O` (stereo partly shown) [Compound 9], the “Glycan A2BG2 (alt name G2B) (%)” value is 0.8%, the “Glycan FA2(3)G1 (alt name G1′F) (%)” value was found to be 0.0%, the “Glycan FA2(6)G1 (alt name G1F) (%)” value is recorded as 3.9% and the “Glycan FA2(6)G1S1 (alt name G1FS1) (%)” value stood at 0.0%. Moreover, the “Glycan FA2 (alt name G0F) (%)” value was found to be 78.9%, the “Glycan FA2G2S1 (alt name G2FS1) (%)” value is 16.4% and the “Glycan FA2G2S2 (alt name G2FS2) (%)” value stood at 0.0%.

With `CC1=C[C@H](O)[C@@H](O)[C@H](O)[C@@H]1O` [Compound 13], the “Glycan A2BG2 (alt name G2B) (%)” value came out at 0.8%, the “Glycan FA2(3)G1 (alt name G1′F) (%)” value turned out to be 0.0%, the “Glycan FA2(6)G1 (alt name G1F) (%)” value came to 3.9% and the “Glycan FA2(6)G1S1 (alt name G1FS1) (%)” value is reported as 0.9%. Also, the “Glycan FA2 (alt name G0F) (%)” value stood at 77.3%, the “Glycan FA2G2S1 (alt name G2FS1) (%)” value is 17.0% and the “Glycan FA2G2S2 (alt name G2FS2) (%)” value is reported as 0.0%.

Take `CC1C[C@H](O)[C@@H](O)[C@H](O)[C@@H]1O` (stereo partly shown) [Compound 15]: the “Glycan A2BG2 (alt name G2B) (%)” value was 0.0%, the “Glycan FA2(3)G1 (alt name G1′F) (%)” value was determined as 0.0%, the “Glycan FA2(6)G1 (alt name G1F) (%)” value is recorded as 0.0% and the “Glycan FA2(6)G1S1 (alt name G1FS1) (%)” value is recorded as 17.2%. Besides, the “Glycan FA2 (alt name G0F) (%)” value is given as 8.8%, the “Glycan FA2G2S1 (alt name G2FS1) (%)” value was 0.0% and the “Glycan FA2G2S2 (alt name G2FS2) (%)” value is on record as 3.3%.

Staying with this assay, now noted: 0.1 mM compound added a day after transfection with HER2 antibody; harvested after 8 days; released glycans by CE-LIF; non-fucosylated glycan.
Regarding `CC1=C[C@H](O)[C@@H](F)[C@H](O)[C@@H]1O` [Compound 6], the “Glycan A2 (alt name G0) (%)” value amounted to 0.0%.

Consider `CC(=O)O[C@H]1[C@H](F)[C@@H](OC(C)=O)C=C(C)[C@H]1OC(C)=O` [Compound 7], for which the “Glycan A2 (alt name G0) (%)” value is 0.0%.

On to `CC1C[C@H](O)[C@@H](F)[C@H](O)[C@@H]1O` (stereo partly shown) [Compound 8], for which the “Glycan A2 (alt name G0) (%)” value is 0.0%.

As to `CC(=O)O[C@H]1[C@H](F)[C@@H](OC(C)=O)CC(C)[C@H]1OC(C)=O` (stereo partly shown) [Compound 9], the “Glycan A2 (alt name G0) (%)” value is recorded as 0.0%.

For the molecule `CC1=C[C@H](O)[C@@H](O)[C@H](O)[C@@H]1O` [Compound 13], the “Glycan A2 (alt name G0) (%)” value is on record as 0.0%.

Regarding `CC1C[C@H](O)[C@@H](O)[C@H](O)[C@@H]1O` (stereo partly shown) [Compound 15], the “Glycan A2 (alt name G0) (%)” value stood at 70.6%.
